The results in this text go back to patent US20200392116A1, “SUBSTITUTED HETEROCYCLES AS c-MYC TARGETING AGENTS” (NORTHWESTERN UNIVERSITY, priority 2019, published 2020).

Each structure is given as a SMILES string.

A short description of this assay: Potency code of Table 2 (assay not stated).
Regarding `CCc1ccc(Oc2c[nH]nc2-c2ccc(OCc3ccc(Cl)cc3)cc2O)cc1` [NUCC-0176243], the Potency code result is recorded as “+ (>40 +)”. Under `CCc1ccc(Oc2c[nH]nc2-c2ccc(OCc3ccc(C(F)(F)F)cc3)cc2O)cc1` [NUCC-0176244] stands “+ (>40 +)”; under `CCc1ccc(Oc2c(-c3ccc(OCCc4cccc(C(F)(F)F)c4)cc3O)n[nH]c2C(F)(F)F)cc1` [NUCC-0176245], “++ (30-40 ++)”; under `CCc1ccc(Oc2c[nH]nc2-c2ccc(OCc3cnn(C)c3)cc2O)cc1` [NUCC-0176246], “+ (>40 +)”. With `Oc1cc(OCc2ccc(Cl)cc2)ccc1-c1n[nH]cc1Oc1ccccc1` [NUCC-0176247], the Potency code entry is given as “+ (>40 +)”. Regarding `Cc1[nH]nc(-c2ccc(OCc3cnn(C)c3)cc2O)c1Oc1ccccc1` [NUCC-0176249], the Potency code result is reported as “+ (>40 +)”. For `Oc1cc(OCc2ccncc2)ccc1-c1n[nH]cc1Oc1ccccc1` [NUCC-0176251], the Potency code entry is reported as “+ (>40 +)”.

Consider `Cc1[nH]nc(-c2ccc(OCCc3ccc(Cl)cc3)cc2O)c1Oc1ccccc1` [NUCC-0176252], for which the Potency code result is on record as “+ (>40 +)”. The result for `Cc1[nH]nc(-c2ccc(OCc3ccc(Cl)cc3)cc2O)c1Oc1ccccc1` [NUCC-0176253] reads “+ (>40 +)”. Under `CCc1ccc(Oc2c[nH]nc2-c2ccc(OCc3ccncc3)cc2O)cc1` [NUCC-0176254] stands “+ (>40 +)”; under `Oc1cc(OCc2ccccc2)ccc1-c1n[nH]cc1Oc1ccccc1` [NUCC-0176255], “+ (>40 +)”. For `CCc1ccc(Oc2c[nH]nc2-c2ccc(OCC3CCCCC3)cc2O)cc1` [NUCC-0176256], the Potency code result is listed as “+ (>40 +)”. The result for `CCc1ccc(Oc2c[nH]nc2-c2ccc(OCc3ccc(F)cc3)cc2O)cc1` [NUCC-0176257] reads “+ (>40 +)”; that for `CCc1ccc(Oc2c[nH]nc2-c2ccc(OCCc3ccc(F)cc3)cc2O)cc1` [NUCC-0176258], “+ (>40 +)”; that for `Cc1[nH]nc(-c2ccc(OCc3ccc(F)cc3)cc2O)c1Oc1ccccc1` [NUCC-0176259], “+ (>40 +)”. The result for `CCc1ccc(Oc2cn(C)nc2-c2ccc(OCc3ccc(Cl)cc3)cc2O)cc1` [NUCC-0176260] reads “+ (>40 +)”. Under `CCc1ccc(Oc2c[nH]nc2-c2ccc(OCCc3ccc(Cl)cc3)cc2O)cc1` [NUCC-0176261] stands “+ (>40 +)”; under `CCc1ccc(Oc2c(-c3ccc(OCc4ccc(Cl)cc4)cc3O)n[nH]c2CC)cc1` [NUCC-0196282], “+ (>40 +)”; under `COc1ccc(-c2c(-c3ccc(OCc4ccc(Cl)cc4)cc3O)n[nH]c2C(F)(F)F)cc1OC` [NUCC-0196283], “++++ (<10 ++++)”. With `Cc1ccc(C)c(Oc2c[nH]nc2-c2ccc(OCc3ccc(Cl)cc3)cc2O)c1` [NUCC-0196284], the Potency code entry is “+ (>40 +)”. Under `Cc1ccc(C)c(Oc2cn(C)nc2-c2ccc(OCc3ccc(Cl)cc3)cc2O)c1` [NUCC-0196285] stands “+ (>40 +)”. With `Cc1ccc(C)c(Oc2c[nH]nc2-c2ccc(OCc3cccc(Cl)c3)cc2O)c1` [NUCC-0196286], the Potency code result is “+ (>40 +)”. Under `Cc1ccc(C)c(Oc2cn(C)nc2-c2ccc(OCc3cccc(Cl)c3)cc2O)c1` [NUCC-0196287] stands “+ (>40 +)”; under `COc1cccc(COc2ccc(-c3n[nH]cc3Oc3cc(C)ccc3C)c(O)c2)c1` [NUCC-0196288], “+ (>40 +)”; under `COc1cccc(COc2ccc(-c3nn(C)cc3Oc3cc(C)ccc3C)c(O)c2)c1` [NUCC-0196289], “+ (>40 +)”. The result for `Cc1ccc(C)c(Oc2c[nH]nc2-c2ccc(OCc3ccc4ccccc4c3)cc2O)c1` [NUCC-0196290] reads “+ (>40 +)”; that for `Cc1ccc(C)c(Oc2cn(C)nc2-c2ccc(OCc3ccc4ccccc4c3)cc2O)c1` [NUCC-0196291], “+ (>40 +)”. Turning to `CCc1ccc(Oc2c(-c3ccc(OCc4ccc(Cl)cc4)cc3O)nn(C)c2CC)cc1` [NUCC-0196294], the Potency code entry was “+ (>40 +)”.

For the compound `CCc1ccc(Oc2c(-c3ccc(OCc4cccc(Cl)c4)cc3O)nn(C)c2C(F)(F)F)cc1` [NUCC-0196296], the Potency code result is reported as “+ (>40 +)”. As to `CCc1ccc(Oc2c(-c3ccc(OCc4cccc(OC)c4)cc3O)n[nH]c2C(F)(F)F)cc1` [NUCC-0196297], the Potency code entry was “+ (>40 +)”.

Take `CCc1ccc(Oc2c(-c3ccc(OCc4cccc(OC)c4)cc3O)nn(C)c2C(F)(F)F)cc1` [NUCC-0196298]: the Potency code result was “++ (30-40 ++)”. The result for `Cc1ccc(C)c(Oc2cn(C)nc2-c2ccc(OCCN3CCCCC3)cc2O)c1` [NUCC-0196299] reads “+ (>40 +)”; that for `Oc1cc(OCc2ccc(Cl)cc2)ccc1-c1n[nH]c(C(F)(F)F)c1Oc1cccc(F)c1` [NUCC-0196301], “+ (>40 +)”. Under `Cn1nc(-c2ccc(OCc3ccc(Cl)cc3)cc2O)c(Oc2cccc(F)c2)c1C(F)(F)F` [NUCC-0196302] stands “+ (>40 +)”; under `Oc1cc(OCc2ccc(Cl)cc2)ccc1-c1n[nH]cc1Oc1ccc(Cl)cc1` [NUCC-0196303], “+ (>40 +)”. The result for `Cn1nc(-c2ccc(OCc3ccc(Cl)cc3)cc2O)c(Oc2ccccc2Cl)c1C(F)(F)F` [NUCC-0196304] reads “+++ (10-30 +++)”; that for `Cn1cc(Oc2ccccc2Cl)c(-c2ccc(OCc3ccc(Cl)cc3)cc2O)n1` [NUCC-0196305], “++++ (<10 ++++)”. In the case of `COc1ccc(-c2c(-c3ccc(OCc4ccc(Cl)cc4)cc3O)noc2C(F)(F)F)cc1OC` [NUCC-0196306], the Potency code result is listed as “+ (>40 +)”. For the compound `COc1ccc(-c2c(-c3ccc(OCc4ccc(Cl)cc4)cc3O)nn(C)c2C(F)(F)F)cc1OC` [NUCC-0196311], the Potency code entry is listed as “+ (>40 +)”. Under `COc1ccc(-c2c(-c3ccc(OCc4ccc(Cl)cc4)cc3O)n[nH]c2C(F)(F)F)cc1` [NUCC-0196312] stands “+ (>40 +)”; under `Oc1cc(OCc2ccc(Cl)cc2)ccc1-c1cc(C(F)(F)F)[nH]n1` [NUCC-0196313], “++++ (<10 ++++)”.

In the case of `Cn1nc(-c2ccc(OCc3ccc(Cl)cc3)cc2O)cc1C(F)(F)F` [NUCC-0196314.2], the Potency code result is “+ (>40 +)”. Regarding `COc1ccc(-c2c(-c3ccc(OCc4ccc(Cl)cc4)cc3O)nn(C)c2C(F)(F)F)cc1` [NUCC-0196340], the Potency code entry was “++ (30-40 ++)”. Under `Cn1nc(-c2ccc(OCCN3CCOCC3)cc2O)c(Oc2ccccc2Cl)c1C(F)(F)F` [NUCC-0196341] stands “+ (>40 +)”; under `Oc1cc(OCc2ccc(Cl)cc2)ccc1-c1n[nH]cc1Oc1ccccc1Cl` [NUCC-0196343], “+ (>40 +)”. `Cc1ccc(-c2c(OCc3ccc(Cl)cc3)ccc(-c3cc(C(F)(F)F)[nH]n3)c2O)cc1` [NUCC-0196344]: the Potency code entry is recorded as “+++ (10-30 +++)”.

Consider `Cc1ccc(-c2c[nH]nc2-c2ccc(OCc3ccc(Cl)cc3)cc2O)cc1` [NUCC-0196345], for which the Potency code entry is on record as “+ (>40 +)”.

Regarding `Cc1ccc(-c2cn(C)nc2-c2ccc(OCc3ccc(Cl)cc3)cc2O)cc1` [NUCC-0196346], the Potency code result is given as “+ (>40 +)”.

`Oc1c(-c2cc(C(F)(F)F)[nH]n2)ccc(OCc2ccc(Cl)cc2)c1-c1ccc(F)cc1` [NUCC-0196347]: the Potency code entry is on record as “+ (>40 +)”. The result for `Cn1nc(-c2ccc(OCc3ccc(Cl)cc3)c(-c3ccc(F)cc3)c2O)cc1C(F)(F)F` [NUCC-0196348] reads “+++ (10-30 +++)”; that for `Cn1cc(-c2ccc(F)cc2)c(-c2ccc(OCc3ccc(Cl)cc3)cc2O)n1` [NUCC-0196349], “+ (>40 +)”. Under `Oc1cc(OCc2ccc(Cl)cc2)ccc1-c1n[nH]cc1-c1cccc(Cl)c1` [NUCC-0196350] stands “+++ (10-30 +++)”; under `Cn1cc(-c2cccc(Cl)c2)c(-c2ccc(OCc3ccc(Cl)cc3)cc2O)n1` [NUCC-0196351], “+ (>40 +)”; under `CCc1ccc(Oc2c(-c3ccc(OCc4ccc(Cl)cc4)cc3OC)nn(C)c2C(F)(F)F)cc1` [NUCC-0196352], “+ (>40 +)”. The result for `CCc1ccc(Oc2c(-c3ccc(OCc4ccc(Cl)cc4)cc3)nn(C)c2C(F)(F)F)cc1` [NUCC-0196353] reads “+ (>40 +)”. As for `CCc1ccc(Oc2c(-c3ccc(OCc4ccc(Cl)c(Cl)c4)cc3O)nn(C)c2C(F)(F)F)cc1` [NUCC-0196354], the Potency code entry is “+ (>40 +)”. The result for `CCc1ccc(Oc2c(-c3ccc(OCc4ccc(Cl)c(Cl)c4)cc3O)n[nH]c2C(F)(F)F)cc1` [NUCC-0196355] reads “+++ (10-30 +++)”; that for `CCc1ccc(Oc2c(-c3ccc(OCCc4ccc(Cl)cc4)cc3O)nn(C)c2C(F)(F)F)cc1` [NUCC-0196356], “+ (>40 +)”.

On to `CCc1ccc(Oc2c(-c3ccc(OCCc4ccc(Cl)cc4)cc3O)n[nH]c2C(F)(F)F)cc1` [NUCC-0196357], for which the Potency code result is given as “+++ (10-30 +++)”.

Take `CCc1ccc(Oc2c(-c3ccc(OCc4ccc(OC)cc4)cc3O)nn(C)c2C(F)(F)F)cc1` [NUCC-0196358]: the Potency code result is “+ (>40 +)”. Under `CCc1ccc(Oc2c(-c3ccc(OCc4ccc(OC)cc4)cc3O)n[nH]c2C(F)(F)F)cc1` [NUCC-0196359] stands “+ (>40 +)”; under `Cn1nc(-c2ccc(OCc3ccc(Cl)cc3)c(-c3cc(C(F)(F)F)cc(C(F)(F)F)c3)c2O)cc1C(F)(F)F` [NUCC-0196360], “+ (>40 +)”; under `Oc1c(-c2cc(C(F)(F)F)[nH]n2)ccc(OCc2ccc(Cl)cc2)c1-c1cc(C(F)(F)F)cc(C(F)(F)F)c1` [NUCC-0196362], “++ (30-40 ++)”. Consider `Cn1nc(-c2ccc(OCc3ccc(Cl)cc3)c(-c3cccnc3)c2O)cc1C(F)(F)F` [NUCC-0196364], for which the Potency code entry was “+ (>40 +)”. Under `Cn1nc(C(F)(F)F)cc1-c1ccc(OCc2ccc(Cl)cc2)c(-c2cccnc2)c1O` [NUCC-0196365] stands “+ (>40 +)”; under `Oc1c(-c2cc(C(F)(F)F)[nH]n2)ccc(OCc2ccc(Cl)cc2)c1-c1cccnc1` [NUCC-0196366], “+ (>40 +)”; under `Oc1cc(OCc2ccc(Cl)cc2)ccc1-c1n[nH]cc1-c1ccccc1` [NUCC-0198293], “+ (>40 +)”.
